Assay results taken from ChEMBL document CHEMBL3046848, “Synthesis and biological evaluation of novel series of thieno[2,3-d]pyrimidine derivatives as anticancer and antimicrobial agents” (2013).
Values after ≈ are worked out from the molar mass of the structure shown.

Columns and labels:
Assay type in all cases: functional
ACHN = assay: Growth inhibition of Homo sapiens (human) ACHN cells at 10 uM after 48 hr by SRB assay; conditions: read-out: GI
RXF 393 = assay: Growth inhibition of Homo sapiens (human) RXF393 cells at 10 uM after 48 hr by SRB assay; conditions: RXF 393, 48 h, read-out: GI
UO-31 = assay: Anticancer activity against Homo sapiens (human) UO31 cells after 48 hr by SRB assay; conditions: UO-31, 48 h
RPMI-8226 = assay: Anticancer activity against Homo sapiens (human) RPMI8226 cells after 48 hr by SRB assay; conditions: RPMI-8226, 48 h
KM12 = assay: Growth inhibition of Homo sapiens (human) KM12 cells at 10 uM after 48 hr by SRB assay; conditions: KM12, 48 h, read-out: GI
UACC-257 [1] = assay: Growth inhibition of Homo sapiens (human) UACC257 cells at 10 uM after 48 hr by SRB assay; conditions: UACC-257, 48 h, read-out: GI
SF-295 = assay: Anticancer activity against Homo sapiens (human) SF295 cells after 48 hr by SRB assay; conditions: SF-295, 48 h
HL-60(TB) [2] = assay: Growth inhibition of Homo sapiens (human) HL-60(TB) cells at 10 uM after 48 hr by SRB assay; conditions: HL-60, 48 h, read-out: GI
Candida albicans [3] = assay: Antimicrobial activity against Candida albicans ATCC2091 assessed as diameter of growth inhibition zone at 1 mg/ml after 48 hr by agar cup diffusion method; conditions: ATCC2091, 48 h, read-out: IZ
NCI-H460 = assay: Growth inhibition of Homo sapiens (human) NCI-H460 cells at 10 uM after 48 hr by SRB assay; conditions: NCI-H460, 48 h, read-out: GI
NCI/ADR-RES = assay: Growth inhibition of Homo sapiens (human) NCI/ADR-RES cells at 10 uM after 48 hr by SRB assay; conditions: read-out: GI
EKVX = assay: Growth inhibition of Homo sapiens (human) EKVX cells at 10 uM after 48 hr by SRB assay; conditions: read-out: GI
UACC-62 = assay: Anticancer activity against Homo sapiens (human) UACC62 cells after 48 hr by SRB assay; conditions: UACC-62, 48 h
CAKI-1 [4] = assay: Growth inhibition of Homo sapiens (human) CAKI-1 cells at 10 uM after 48 hr by SRB assay; conditions: CAKI-1, 48 h, read-out: GI
SK-OV-3 = assay: Anticancer activity against Homo sapiens (human) SKOV3 cells after 48 hr by SRB assay; conditions: SK-OV-3, 48 h
OVCAR-5 = assay: Growth inhibition of Homo sapiens (human) OVCAR5 cells at 10 uM after 48 hr by SRB assay; conditions: OVCAR-5, 48 h, read-out: GI
HL-60(TB) [5] = assay: Anticancer activity against Homo sapiens (human) HL-60(TB) cells after 48 hr by SRB assay; conditions: HL-60, 48 h
SR = assay: Growth inhibition of Homo sapiens (human) SR cells at 10 uM after 48 hr by SRB assay; conditions: read-out: GI
SNB-75 = assay: Growth inhibition of Homo sapiens (human) SNB75 cells at 10 uM after 48 hr by SRB assay; conditions: SNB-75, 48 h, read-out: GI
A549 = assay: Anticancer activity against Homo sapiens (human) A549/ATCC cells after 48 hr by SRB assay; conditions: A549, 48 h
LOX IMVI [6] = assay: Growth inhibition of Homo sapiens (human) LOXIMVI cells at 10 uM after 48 hr by SRB assay; conditions: read-out: GI
Candida albicans [7] = assay: Antimicrobial activity against Candida albicans ATCC2091 assessed as growth inhibition after 48 hr by two-fold serial dilution method; conditions: ATCC2091, 48 h
OVCAR-3 = assay: Growth inhibition of Homo sapiens (human) OVCAR3 cells at 10 uM after 48 hr by SRB assay; conditions: OVCAR-3, 48 h, read-out: GI
HCT-15 = assay: Anticancer activity against Homo sapiens (human) HCT15 cells after 48 hr by SRB assay; conditions: HCT-15, 48 h
UACC-257 [8] = assay: Anticancer activity against Homo sapiens (human) UACC257 cells after 48 hr by SRB assay; conditions: UACC-257, 48 h
NCI-H522 = assay: Growth inhibition of Homo sapiens (human) NCI-H522 cells at 10 uM after 48 hr by SRB assay; conditions: NCI-H522, 48 h, read-out: GI
Malme-3M = assay: Anticancer activity against Homo sapiens (human) MALME-3M cells after 48 hr by SRB assay
M14 = assay: Growth inhibition of Homo sapiens (human) M14 cells at 10 uM after 48 hr by SRB assay; conditions: M14, 48 h, read-out: GI
NCI-H322M = assay: Growth inhibition of Homo sapiens (human) NCI-H322M cells at 10 uM after 48 hr by SRB assay; conditions: read-out: GI
LOX IMVI [9] = assay: Anticancer activity against Homo sapiens (human) LOXIMVI cells after 48 hr by SRB assay
OVCAR-8 = assay: Anticancer activity against Homo sapiens (human) OVCAR8 cells after 48 hr by SRB assay; conditions: OVCAR-8, 48 h
CAKI-1 [10] = assay: Anticancer activity against Homo sapiens (human) CAKI-1 cells after 48 hr by SRB assay; conditions: CAKI-1, 48 h
SK-MEL-5 = assay: Anticancer activity against Homo sapiens (human) SK-MEL-5 cells after 48 hr by SRB assay; conditions: SK-MEL-5, 48 h
CCRF-CEM = assay: Growth inhibition of Homo sapiens (human) CCRF-CEM cells at 10 uM after 48 hr by SRB assay; conditions: read-out: GI
HCC 2998 = assay: Anticancer activity against Homo sapiens (human) HCC2998 cells after 48 hr by SRB assay; conditions: HCC 2998, 48 h
[11] = read-out: LC50 (the source's name)

Cc1c(C(N)=O)sc2nc(C)n(/N=c3\scc(-c4ccccc4)n3Cc3ccccc3)c(=O)c12
inhibition of growth at 10 µM (ACHN): 92.7%
inhibition of growth at 10 µM (RXF 393): 105%
GI50 (UO-31): 1.66 µM
TGI (UO-31): 7 µM
CC50 (UO-31; [11]): > 100 µM
GI50 (RPMI-8226): 13.9 µM
TGI (RPMI-8226): > 100 µM
CC50 (RPMI-8226; [11]): > 100 µM
inhibition of growth at 10 µM (KM12): 86.4%
inhibition of growth at 10 µM (UACC-257 [1]): 95.2%
GI50 (SF-295): 2.93 µM
TGI (SF-295): > 100 µM
CC50 (SF-295; [11]): > 100 µM
inhibition of growth at 10 µM (HL-60(TB) [2]): 136%
zone of inhibition at 1000 µg/mL (Candida albicans [3]): 17 mm
inhibition of growth at 10 µM (NCI-H460): 92.5%
inhibition of growth at 10 µM (NCI/ADR-RES): 81.1%
inhibition of growth at 10 µM (EKVX): 107%
GI50 (UACC-62): 4.26 µM
TGI (UACC-62): 83.2 µM
CC50 (UACC-62; [11]): > 100 µM
inhibition of growth at 10 µM (CAKI-1 [4]): 141%
GI50 (SK-OV-3): 4.5 µM
TGI (SK-OV-3): > 100 µM
CC50 (SK-OV-3; [11]): > 100 µM
inhibition of growth at 10 µM (OVCAR-5): 52.1%
GI50 (HL-60(TB) [5]): 6.68 µM
TGI (HL-60(TB) [5]): > 100 µM
CC50 (HL-60(TB) [5]; [11]): > 100 µM
inhibition of growth at 10 µM (SR): 87.2%
inhibition of growth at 10 µM (SNB-75): 45.2%
GI50 (A549): 3.79 µM
TGI (A549): > 100 µM
CC50 (A549; [11]): > 100 µM
inhibition of growth at 10 µM (LOX IMVI [6]): 79.4%
MIC (Candida albicans [7]): 125 µg/mL (≈ 256 µM)
inhibition of growth at 10 µM (OVCAR-3): 95.7%
GI50 (HCT-15): 2.64 µM
TGI (HCT-15): > 100 µM
CC50 (HCT-15; [11]): > 100 µM
GI50 (UACC-257 [8]): 3.56 µM
TGI (UACC-257 [8]): 24.3 µM
CC50 (UACC-257 [8]; [11]): > 100 µM
inhibition of growth at 10 µM (NCI-H522): 75.1%
GI50 (Malme-3M): 2.18 µM
TGI (Malme-3M): > 100 µM
CC50 (Malme-3M; [11]): > 100 µM
inhibition of growth at 10 µM (M14): 63.6%
inhibition of growth at 10 µM (NCI-H322M): 64.6%
GI50 (LOX IMVI [9]): 3.54 µM
TGI (LOX IMVI [9]): > 100 µM
CC50 (LOX IMVI [9]; [11]): > 100 µM
GI50 (OVCAR-8): 3.49 µM
TGI (OVCAR-8): > 100 µM
CC50 (OVCAR-8; [11]): > 100 µM
GI50 (CAKI-1 [10]): 3.35 µM
TGI (CAKI-1 [10]): > 100 µM
CC50 (CAKI-1 [10]; [11]): > 100 µM
GI50 (SK-MEL-5): 1.81 µM
TGI (SK-MEL-5): 3.75 µM
CC50 (SK-MEL-5; [11]): 7.75 µM
inhibition of growth at 10 µM (CCRF-CEM): 112%
GI50 (HCC 2998): 3.05 µM
TGI (HCC 2998): > 100 µM
CC50 (HCC 2998; [11]): > 100 µM
